Results taken from patent US20220110910A1, “CANNABINOID-CONTAINING COMPLEX MIXTURES FOR THE TREATMENT OF CYTOKINE RELEASE SYNDROME WHILE PRESERVING KEY ANTI-VIRAL IMMUNE REACTIONS” (GBS Global BioPharma, Inc., priority 2020, published 2022).
Entries after “also recorded” stand apart in the source; their conditions may differ.

Legend:
Type in all cases: cell-based, human
monocytes [1] = experiment: Co-stimulatory markers HLA-DR, CD80, CD86 on monocytes after LPS; settings: 2 days, vs vehicle
Procedure: (§1) In immunological activity experiments, PBMC suspensions were pre-treated with cannabinoid and/or terpene compounds for 30 minutes before treatment with designated stimuli, cultured in 96 well tissue culture plates, and incubated at 37° C. and 5.0% CO2. In pDC experiments, cell suspensions were stimulated with CpG-ODN Type A 2216 (15 μg/mL) (InvivoGen©, San Diego, Calif.) following treatment with cannabinoids. Golgi transport inhibitors Monensin (2 μM)/Brefeldin A (3.0 μg/mL) (Thermo Fisher Scientific, Waltham, Mass.) were added to culture 3 hours post-stimulation, and after 7 hours of stimulation cells were harvested for evaluation by flow cytometry for IFNα and TNFα. In monocyte experiments, cell suspensions were stimulated with 1000 ng/mL LPS (S. typhosa, Sigma Aldrich, St. Louis, Mo.) for 18 hours before harvesting supernatants for IL-1β, Golgi blocked for 6 hours before harvesting cells for assessment of IL-6, or cultured for 48 hours before harvesting cells for assessment of HLA-DR, CD80, and CD86. In phagocytosis experiments, cell suspensions were treated with 3.0 mg/mL of pHrodo Green BioParticles (Thermo Fisher). In T cell experiments, cells were plated on 96 well tissue culture plates pre-coated with 5.0 μg/mL anti-CD3 (clone UCHT1, Biolegend, San Diego, Calif.) and stimulated with 5.0 μg/mL anti-CD28 (clone 28.2, Biolegend) and supplemented with 5.0 ng/mL IL-2 (Roche Applied Science, Indianapolis, Ind.). CD25 and CD69 were assessed by flow cytometry 24 hours post-stimulation. In proliferation experiments, cell suspensions were incubated with CFSE Cell Division Tracker (Biolegend) according to manufacturer protocols, harvested 4 days post-stimulation and assessed by flow cytometry. Cell suspensions were further stimulated with 50 ng/mL phorbol 12-myristate 13-acetate (PMA) and 1000 ng/mL ionomycin (Io) at 4 days post-stimulation for 18 hours, Golgi blocked for 6 hours, and harvested for IL-4 and IFNγ assessment by flow cytometry.
In brief, pDC, monocyte and T cell were identified using antibodies directed against unique epitopes for each cell type and analyzed by flow cytometry. Cells were fixed in BD CytoFix and resuspended in FACS buffer for extracellular staining. To determine the changes in cell viability in mixed PBMC, gates were first set on singlet events, then CD45+ cells, then populations identified by CD3+ (T cells) and CD14+ (monocytes), and then 7-AAD- for viability. Likewise, for pDC viability experiments, pDC were identified as CD303+ and viable by exclusion of Near IR L/D stain (Life Technologies, Carlsbad, Calif.). For intracellular staining, fixed cells were permeabilized in BD Permwash and incubated with appropriate antibodies and 7% human AB serum. pDC were identified as CD303+and assessed for intracellular IFNα and TNFα. Monocytes were identified as CD14+ and assessed for extracellular HLA-DR, CD80, CD86, and intracellular TNFα and IL-6. In phagocytosis experiments, PBMC were identified as CD45+ and monocytes were identified based on side scatter and then phagocytosing monocytes. T cells were identified as CD3+ and T cell subsets identified by CD4+ and CD8+ and assessed for extracellular CD25 and CD69 and intracellular IFNγ and IL-4. To analyze T cell proliferation, FlowJo 10.0 proliferation tool was used by setting the undivided peak of CFSE stained cells in each sample.

CD8+ T cells [2] = experiment: T cell proliferation (CFSE, FlowJo Proliferation tool); settings: increasing concentration up to 10 μM
Procedure: as §1
(§2) In brief, pDC, monocyte and T cell were identified using antibodies directed against unique epitopes for each cell type and analyzed by flow cytometry. Cells were fixed in BD CytoFix and resuspended in FACS buffer for extracellular staining. […] For intracellular staining, fixed cells were permeabilized in BD Permwash and incubated with appropriate antibodies and 7% human AB serum. pDC were identified as CD303+and assessed for intracellular IFNα and TNFα. Monocytes were identified as CD14+ and assessed for extracellular HLA-DR, CD80, CD86, and intracellular TNFα and IL-6. […] T cells were identified as CD3+ and T cell subsets identified by CD4+ and CD8+ and assessed for extracellular CD25 and CD69 and intracellular IFNγ and IL-4. […]

CD4+ T cells [3] = experiment: as above; settings: 10 μM
Procedure: as §1, §2

monocytes [4] = experiment: TNFα+ monocytes after CpG-ODN stimulation (intracellular staining); settings: CpG-ODN 15 μg/mL, 6 hours, vs vehicle
Procedure: FIGS. 9A-9B reveal the TNFα decreasing potential of cannabinol (CBN). […] PBMC were isolated from human peripheral blood and pre-treated with the indicated concentrations of cannabinol for 30 minutes, followed by stimulation with 15 μg/mL CpG-ODN for 6 hours (FIG. 9A). Cells were non-enzymatically released from culture plates and assessed for the percentage of TNFα+ monocytes (FIG. 9A) by intracellular staining. For FIG. 9B, PBMC were isolated from human peripheral blood and pre-treated with the indicated concentrations of cannabinol for 30 minutes, followed by treatment with 3.0 mg/mL of pHrodo Green BioParticles (FIG. 9B). In FIG. 9B, cells were treated with 3.0 mg/mL of pHrodo Green BioParticles and assessed for phagocytosis monocytes by flow cytometry within 2 hours. Data are normalized to each donor's vehicle control when appropriate and presented as mean±SEM. N=4-6 donors per treatment group. […] *p<0.05 when compared to VH (FIG. 9A), or **p<0.01 when compared to VH (FIG. 9B), by repeated measure one-way ANOVA with Dunnett's posttest.
as §2

monocytes [5] = experiment: IL-6+ monocytes after LPS stimulation (intracellular staining); settings: LPS 1000 ng/mL, vs vehicle
Procedure: as §1, with “In T cell experiments, cells were plated on 96 well tissue culture plates pre-coated with 5.0 μg/mL anti-CD3 (clone UCHT1, Biolegend, San Diego, Calif.) and stimulated with 5.0 μg/mL anti-CD28 (clone 28.2, Biolegend) and supplemented with 5.0 ng/mL IL-2 (Roche Applied Science, Indianapolis, Ind.).” left out, “Cell suspensions were further stimulated with 50 ng/mL phorbol 12-myristate 13-acetate (PMA) and 1000 ng/mL ionomycin (Io) at 4 days post-stimulation for 18 hours, Golgi blocked for 6 hours, and harvested for IL-4 and IFNγ assessment by flow cytometry.” left out
as §2, with “cytometry.” for “cytometry. Cells were fixed in BD CytoFix and resuspended in FACS buffer for extracellular staining.”

monocytes [6] = experiment: IL-1β ELISA in supernatants of LPS-stimulated PBMC; settings: LPS 1000 ng/mL, vs vehicle
Procedure: as §1
To quantify IL-1β produced by monocytes, supernatants were collected from LPS stimulated cell suspensions after 18 hours and frozen at −80° C. ELISA MAX from Biolegend was used as per manufacturer protocol to quantify IL-1β to a sensitivity of […].

monocytes [7] = experiment: Phagocytosis of pHrodo Green BioParticles by monocytes; settings: 10 μM; pHrodo Green BioParticles 3.0 mg/mL; vs vehicle
Procedure: as §1, with “In T cell experiments, cells were plated on 96 well tissue culture plates pre-coated with 5.0 μg/mL anti-CD3 (clone UCHT1, Biolegend, San Diego, Calif.) and stimulated with 5.0 μg/mL anti-CD28 (clone 28.2, Biolegend) and supplemented with 5.0 ng/mL IL-2 (Roche Applied Science, Indianapolis, Ind.).” left out, “Cell suspensions were further stimulated with 50 ng/mL phorbol 12-myristate 13-acetate (PMA) and 1000 ng/mL ionomycin (Io) at 4 days post-stimulation for 18 hours, Golgi blocked for 6 hours, and harvested for IL-4 and IFNγ assessment by flow cytometry.” left out
as §2, with “cytometry.” for “cytometry. Cells were fixed in BD CytoFix and resuspended in FACS buffer for extracellular staining.”

CD8+ T cells [8] = experiment: Intracellular IFNγ after anti-CD3/anti-CD28 stimulation and PMA/ionomycin; settings: vs vehicle
Procedure: as §1, §2

CD8+ T cells [9] = experiment: T cell activation markers CD25 and CD69, 24 hours post-stimulation; settings: 10 μM
Procedure: as §1, with “In T cell experiments, cells were plated on 96 well tissue culture plates pre-coated with 5.0 μg/mL anti-CD3 (clone UCHT1, Biolegend, San Diego, Calif.) and stimulated with 5.0 μg/mL anti-CD28 (clone 28.2, Biolegend) and supplemented with 5.0 ng/mL IL-2 (Roche Applied Science, Indianapolis, Ind.).” left out, “Cell suspensions were further stimulated with 50 ng/mL phorbol 12-myristate 13-acetate (PMA) and 1000 ng/mL ionomycin (Io) at 4 days post-stimulation for 18 hours, Golgi blocked for 6 hours, and harvested for IL-4 and IFNγ assessment by flow cytometry.” left out
as §2, with “cytometry.” for “cytometry. Cells were fixed in BD CytoFix and resuspended in FACS buffer for extracellular staining.”

CD4+ T cells [10] = experiment: Intracellular IFNγ and IL-4 after anti-CD3/anti-CD28 stimulation and PMA/ionomycin; settings: vs vehicle
Procedure: as §1, §2

In the case of CCCCCc1cc(O)c2c(c1)OC(C)(CCC=C(C)C)C=C2 (centres unmarked) [CBC, cannabichromene], the “HLA-DR co-stimulatory marker in monocytes” value (“HLA-DR co-stimulatory marker” for short) (monocytes [1]; 10 μM) is reported as “increased”, the “CD86+ co-stimulatory marker in monocytes” value (monocytes [1]; 1-10 μM) is reported as “increased” and the “T cell proliferation in CD8+ T cells” value (CD8+ T cells [2]) is reported as “not statistically significant”. The “T cell proliferation in CD4+ T cells” value (CD4+ T cells [3]) was “significantly decreased”, the TNFα in monocytes (monocytes [4]; 0.1 μM) was “significantly increased” and the IL-6 in monocytes (monocytes [5]; 10 μM) was “significantly decreased”.

In the case of C=C(C)[C@@H]1CCC(C)=C[C@H]1c1c(O)cc(CCCCC)cc1O [CBD, cannabidiol, reference compound], the IL-1β in monocytes (monocytes [6]; 10 μM) is reported as “significantly decreased”, the IL-6 in monocytes (monocytes [5]; 10 μM) is reported as “significantly decreased” and the phagocytosis by monocytes (monocytes [7]) is reported as “reduced; also recorded: significantly decreased”.

For C=C(C)[C@@H]1CCC(C)=C[C@H]1c1c(O)cc(CCC)cc1O [CBDV, cannabidivarin], the “CD80+ co-stimulatory marker in monocytes” value (monocytes [1]; 10 μM) was “significantly decreased”, the “CD86+ co-stimulatory marker in monocytes” value (monocytes [1]; 10 μM) was “increased” and the “HLA-DR co-stimulatory marker” value (monocytes [1]; 10 μM) was “significantly decreased”. For the same molecule, the IL-1β in monocytes (monocytes [6]; 0.01 μM) was “increased; also recorded: significantly increases”, the IL-1β in monocytes (monocytes [6]; 10 μM) was “significantly decreased” and the “IFNγ in T cells (FIG. 8A: CD8+ T cells)” value (CD8+ T cells [8]; 0.01 μM) was “significantly decreased”. The IL-6 in monocytes (monocytes [5]; 1-10 μM) was “significantly decreased”, the “CD25+ activation marker in CD8+ T cells” value (CD8+ T cells [9]) was “decreased” and the “CD69+ activation marker in CD8+ T cells” value (CD8+ T cells [9]) was “decreased”. The phagocytosis by monocytes (monocytes [7]) was “significantly decreased”.

In the case of CCCCCc1cc(O)c(C/C=C(\C)CCC=C(C)C)c(O)c1 [CBG, cannabigerol], the “HLA-DR co-stimulatory marker” value (monocytes [1]; 10 μM) is reported as “increased; also recorded: enhanced”, the “CD86+ co-stimulatory marker in monocytes” value (monocytes [1]; 1-10 μM) is reported as “increased; also recorded: enhanced” and the IL-1β in monocytes (monocytes [6]; 10 μM) is reported as “significantly decreased”. The “IFNγ in CD8+ T cells” value (CD8+ T cells [8]; 0.01-1 μM) was “significantly decreased”, the “IFNγ in CD4+ T cells” value (CD4+ T cells [10]; 0.01-1 μM) was “significantly decreased” and the “IL-4 levels in CD4+ T cells” value (CD4+ T cells [10]; 0.1-1 μM) was “significantly decreased”.

In the case of CCCCCc1cc(O)c2c(c1)OC(C)(C)c1ccc(C)cc1-2 [CBN, cannabinol], the TNFα in monocytes (monocytes [4]; 10 μM) is reported as “significantly decreased”, the “IFNγ in CD8+ T cells” value (CD8+ T cells [8]; 0.001-0.1 μM) is reported as “significantly decreased” and the “IFNγ in CD4+ T cells” value (CD4+ T cells [10]; 0.001-0.1 μM) is reported as “significantly decreased”. The phagocytosis by monocytes (monocytes [7]) was “decreasing; also recorded: significantly decreased”.
